From ChEMBL document CHEMBL4184139, “Adamantyl- and other polycyclic cage-based conjugates of desferrioxamine B (DFOB) for treating iron-mediated toxicity in cell models of Parkinson's disease” (Bioorg Med Chem Lett, 2017)
Active and inactive are the calls of the source. The rule behind the calls is not given here.

Legend:
[1] = Octanol-water partition coefficient, log P of the compound at 1 mg by RP-HPLC analysis; assay type: physicochemical
SK-N-BE(2)-M17 [2] = test: Cytoprotection against PQ-induced cell death in human SK-N-BE(2)-M17 cells assessed as increase in cell viability at 100 uM pretreated for 2 hrs followed by 1 mM PQ addition measured after 24 hrs by MTT assay; assay type: functional, cell-based
SK-N-BE(2)-M17 [3] = test: Cytoprotection against PQ-induced cell death in human SK-N-BE(2)-M17 cells assessed as increase in cell viability at 100 uM pretreated for 2 hrs followed by 1 mM PQ addition measured after 24 hrs by LDH assay; assay type: functional, cell-based
SK-N-BE(2)-M17 [4] = test: Cytoprotection against H2O2-induced cell death in human SK-N-BE(2)-M17 cells assessed as increase in cell viability at 100 uM pretreated for 2 hrs followed by 1 mM H2O2 addition measured after 24 hrs by MTT assay; assay type: functional, cell-based
SK-N-BE(2)-M17 [5] = test: Cytoprotection against H2O2-induced cell death in human SK-N-BE(2)-M17 cells assessed as increase in cell viability at 100 uM pretreated for 2 hrs followed by 1 mM H2O2 addition measured after 24 hrs by LDH assay; assay type: functional, cell-based
SK-N-BE(2)-M17 [6] = test: Cytoprotection against PQ-induced cell death in human SK-N-BE(2)-M17 cells assessed as increase in cell viability at 100 uM treated 2 hrs post 2 mM PQ treatment measured after 24 hrs by MTT assay; assay type: functional, cell-based
SK-N-BE(2)-M17 [7] = test: Cytoprotection against PQ-induced cell death in human SK-N-BE(2)-M17 cells assessed as increase in cell viability at 100 uM treated 2 hrs post 2 mM PQ treatment measured after 24 hrs by LDH assay; assay type: functional, cell-based
SK-N-BE(2)-M17 [8] = test: Cytoprotection against H2O2-induced cell death in human SK-N-BE(2)-M17 cells assessed as increase in cell viability at 100 uM treated 2 hrs post 0.8 mM H2O2 treatment measured after 24 hrs by MTT assay; assay type: functional, cell-based
SK-N-BE(2)-M17 [9] = test: Cytoprotection against H2O2-induced cell death in human SK-N-BE(2)-M17 cells assessed as increase in cell viability at 100 uM treated 2 hrs post 0.8 mM H2O2 treatment measured after 24 hrs by LDH assay; assay type: functional, cell-based
SK-N-BE(2)-M17 [10] = test: Cytoprotection against PQ-induced cell death in human SK-N-BE(2)-M17 cells assessed as increase in cell viability at 100 uM treated post 200 uM Fecl3 and 1 mM PQ treatment measured after 24 hrs by MTT assay; assay type: functional, cell-based
SK-N-BE(2)-M17 [11] = test: Cytoprotection against PQ-induced cell death in human SK-N-BE(2)-M17 cells assessed as increase in cell viability at 100 uM treated post 200 uM Fecl3 and 1 mM PQ treatment measured after 24 hrs by LDH assay; assay type: functional, cell-based
SK-N-BE(2)-M17 [12] = test: Cytotoxicity against human SK-N-BE(2)-M17 cells at 100 uM 24 hrs by MTT assay; assay type: cell-based; conditions: sk-n-be(2)-m17, 24 h
SK-N-BE(2)-M17 [13] = test: Cytotoxicity against human SK-N-BE(2)-M17 cells at 100 uM 24 hrs by LDH release assay; assay type: cell-based; conditions: sk-n-be(2)-m17, 24 h
[14] = Binding affinity to Fe3+ assessed as [M+H]+ adduct formation by LC-MS/MS analysis
[15] = Binding affinity to Fe3+ assessed as [M+2H]+ adduct formation by LC-MS/MS analysis
[16] = Binding affinity to Fe3+ assessed as change in retention time for compound-Fe3+ complex by RP-HPLC analysis relative to free ligand
Astrocyte [17] = test: Cytoprotection against H2O2-induced cell death in BSO pretreated C57BL6/J mouse brain primary astrocytes assessed as increase in cell viability at 10 uM pretreated for 2 hrs followed by H2O2 addition measured after 24 hrs by MTT assay; assay type: functional, cell-based
Astrocyte [18] = test: Cytoprotection against H2O2-induced cell death in BSO pretreated C57BL6/J mouse brain primary astrocytes assessed as increase in cell viability at 10 uM pretreated for 2 hrs followed by H2O2 addition measured after 24 hrs by LDH release assay; assay type: functional, cell-based
SK-N-BE(2)-M17 [19] = test: Cytoprotection against PQ-induced cell death in human SK-N-BE(2)-M17 cells assessed as increase in cell viability treated 2 hrs post 2 mM PQ treatment measured after 24 hrs by MTT assay; assay type: functional, cell-based

Row | logP [1] | Activity [14] | Activity [15] | Retention time [16] | Compound | Activity (SK-N-BE(2)-M17 [2]) | Activity (SK-N-BE(2)-M17 [3]) | Activity (SK-N-BE(2)-M17 [4]) | Activity (SK-N-BE(2)-M17 [5]) | Activity (SK-N-BE(2)-M17 [6]) | Activity (SK-N-BE(2)-M17 [7]) | Activity (SK-N-BE(2)-M17 [8]) | Activity (SK-N-BE(2)-M17 [9]) | Activity (SK-N-BE(2)-M17 [10]) | Activity (SK-N-BE(2)-M17 [11]) | Activity (SK-N-BE(2)-M17 [12]) | Activity (SK-N-BE(2)-M17 [13]) | Activity (Astrocyte [17]) | Activity (Astrocyte [18]) | EC50 (SK-N-BE(2)-M17 [19])
1 | 2.07 | Active | Active | 1.06 min | CC(=O)N(O)CCCCCNC(=O)CCC(=O)N(O)CCCCCNC(=O)CCC(=O)N(O)CCCCCNC(=O)C12CC3CC(C)(CC(C)(C3)C1)C2 | Active | Active | Active | Active | Active | – | Active | – | Active | Active | Non-Toxic | Non-Toxic | Active | Active | 9.8 µM
2 | 1.32 | Active | Active | 0.43 min | CC(=O)N(O)CCCCCNC(=O)CCC(=O)N(O)CCCCCNC(=O)CCC(=O)N(O)CCCCCNC(=O)C12CC3CC(CC(C3)C1)C2 | Active | Active | Active | Active | Active | Active | Active | Active | Active | Active | Non-Toxic | Non-Toxic | Active | Active | –
3 | 2.54 | Active | Active | 1.85 min | CC(=O)N(O)CCCCCNC(=O)CCC(=O)N(O)CCCCCNC(=O)CCC(=O)N(O)CCCCCNC(=O)C12CC3(C)CC(C)(CC(C)(C3)C1)C2 | Active | Active | Active | Active | Active | – | Active | – | Active | Active | Non-Toxic | Non-Toxic | Active | Active | 3.4 µM
4 | 1.84 | Active | Active | 0.83 min | CC(=O)N(O)CCCCCNC(=O)CCC(=O)N(O)CCCCCNC(=O)CCC(=O)N(O)CCCCCNC(=O)C12CC3CC(CC(Cl)(C3)C1)C2 | inactive | inactive | inactive | inactive | inactive | inactive | inactive | inactive | Active | – | Non-Toxic | Non-Toxic | Active | Active | –
5 | 0.98 | Active | Active | 0.48 min | CC(=O)N(O)CCCCCNC(=O)CCC(=O)N(O)CCCCCNC(=O)CCC(=O)N(O)CCCCCNC(=O)C12CC3CC(CC1C3)C2 | Active | Active | Active | Active | Active | – | Active | – | Active | – | Non-Toxic | Non-Toxic | Active | – | 30 µM

Continued, compound first:

Row | Compound | logP [1] | Activity [14] | Activity [15] | Retention time [16] | Activity (SK-N-BE(2)-M17 [2]) | Activity (SK-N-BE(2)-M17 [3]) | Activity (SK-N-BE(2)-M17 [4]) | Activity (SK-N-BE(2)-M17 [5]) | Activity (SK-N-BE(2)-M17 [6]) | Activity (SK-N-BE(2)-M17 [7]) | Activity (SK-N-BE(2)-M17 [8]) | Activity (SK-N-BE(2)-M17 [9]) | Activity (SK-N-BE(2)-M17 [10]) | Activity (SK-N-BE(2)-M17 [11]) | Activity (SK-N-BE(2)-M17 [12]) | Activity (SK-N-BE(2)-M17 [13]) | Activity (Astrocyte [17]) | Activity (Astrocyte [18]) | EC50 (SK-N-BE(2)-M17 [19])
6 | CC(=O)N(O)CCCCCNC(=O)CCC(=O)N(O)CCCCCNC(=O)CCC(=O)N(O)CCCCCNC(=O)[C@H]1C[C@H]2CC[C@H]1C2 (relative stereo) | 0.55 | Active | Active | 0.08 min | Active | Active | Active | Active | Active | Active | Active | Active | Active | Active | Non-Toxic | Non-Toxic | – | – | –
7 | CC(=O)N(O)CCCCCNC(=O)CCC(=O)N(O)CCCCCNC(=O)CCC(=O)N(O)CCCCCNC(=O)C1CC2CCCC(C2)C1 (stereo unspecified) | 1.87 | Active | Active | 0.65 min | inactive | inactive | inactive | inactive | inactive | inactive | inactive | inactive | Active | Active | Non-Toxic | Non-Toxic | Active | Active | –
8 | CC(=O)N(O)CCCCCNC(=O)CCC(=O)N(O)CCCCCNC(=O)CCC(=O)N(O)CCCCCNC(=O)[C@H]1C[C@H]2C=C[C@H]1C2 | 0.5 to 1.4 | Active | Active | -0.52 to 0 min | Active | Active | Active | Active | Active | Active | Active | Active | Active | Active | Non-Toxic | Non-Toxic | – | – | –
9 | CC(=O)N(O)CCCCCNC(=O)CCC(=O)N(O)CCCCCNC(=O)CCC(=O)N(O)CCCCCNC(=O)C12CC3CC(C1)CC(c1ccc([N+](=O)[O-])cc1)(C3)C2 | 2.09 | Active | Active | 1.71 min | Active | Active | Active | Active | Active | Active | Active | Active | – | Active | Non-Toxic | Non-Toxic | Active | Active | –
